Test results taken from paper doi:10.1101/2024.10.11.617883, “A Streamlined High-Throughput LC-MS Assay for Quantifying Peptide Degradation in Cell Culture” (bioRxiv, 2024).
Like-named read-outs stand apart in the source and are kept apart here.

How the values were obtained:
[1] = in vitro; details: human, cells or culture medium
Description: (§1) Human mesenchymal stem cells (hMSCs) (Rooster Bio, LOT 310368) at passage 3 were seeded into 24 well plates at a seeding density of 75,000 cells per well in 1mL of RoosterBasal-MSC-CC (RoosterBio, SU-022) containing RoosterBooster-MSC (RoosterBio SU-003). After 24 hour the media was changed, and peptide library AcβA-RGEFV-X-NH2 was added to the cell media for a final concentration of 37 μM per peptide. Each Library was tested in three times, each in triplicate with three technical repeats for a total of 27 wells. 40 μl samples were collected from the media at hours 0, 1, 4, 8, 24, and 48 in duplicate.
(§2) In-between timepoints, one set of samples was loaded directly within the LC-MS and measured as soon as possible, then stored at 4°C. The second set of samples was immediately frozen at −80°C. After 48 hours, samples were kept frozen and thawed just prior to LC-MS, and 4μL of acetic acid was added to each well. After three weeks the samples were tested again.
(§3) From each sample, 10 μL of crude solution was introduced by the LC-MS through an Thermo Scientific Vanquish LC System (Thermo Fisher Scientific) which outputted to a Thermo Scientific LTQ XL Linear Ion Trap Mass Spectrometer (Thermo Fisher Scientific). The sampled mixture was trapped on a column (ProntoSIL C18 AQ, 120 Å, 3 μm, 2.0 × 50 mm HPLC Column, PN 0502F184PS030, MAC-MOD Analytical Inc.). The samples were loaded onto the column with a solvent containing acetonitrile/water, 5:95 (v/v) containing 1% acetic acid at a flow rate of 300 μL/min and held for one minute. The sample was then eluted from the column with a linear gradient of 5–40% Solvent B (1% acetic acid in acetonitrile) at the same flow rate for five minutes. This was followed by a 1 min ramp up to 100% solvent B, where it was re-equilibrated with solvent A (1% acetic acid) to 5% solvent B over the course of 1 min and held there for 2 min. The column temperature was a constant 29 °C. The mass spectrometer was operated in positive ion mode. Using a heated ESI, the source voltage was set to 4.1 kV, and the capillary temperature was 350 °C.
(§4) Data analysis was performed on Xcalibur Software (Thermo Scientific). Peptides were identified automatically using the Thermo Xcalibur Processing Setup window where the mass (m/z) ±0.5 AMU and expected retention times for each quantified peptide were inputted. This was later used to isolate individual peptide species from the total ion count (TIC) trace using the Thermo Xcalibur Quan Setup window, where the area under the curve was calculated and visually inspected for accuracy. […] The integrated peak area of the peptide of interest was divided by the NH2-βF(βA)6-Amide internal standard to create an area ratio. Relative amounts of a peptide of peptide were then calculated by normalized all values to their corresponding time zero area ratio. Calculated data was visualized using RStudio.

[2] = Retention on the reverse-phase LC-MS column; assay type: physicochemical
Description: The column temperature was a constant 29 °C. The mass spectrometer was operated in positive ion mode.
Since salts from cell culture media adversely impact ionization and foul the MS, we send the mobile phase from the first 1.5 minutes of LCMS to waste prior to ionization to prevent salt accumulation in the mass spectrometer. Accordingly, peptides and internal standards which elute before the gradient begins are not suitable for quantification since they will not be analyze by the mass spectrometer. N-terminal acetylation, the addition of a phenylalanine, or β-homophenylalanine improves retention time by increasing they hydrophobicity of the polypeptide, which increases the affinity to the column (Figure 2A). After 48 hours of degradation, three internal standards candidates had both good retention times and less than 10% degradation (Figure 2B): 1) Ac-βA6-Amide, 2) NH2-βFβA6-Amide, and 3) Ac-FβA6-Amide. The ability of molecules to be identified in mass spectrometry is dependent on their propensity to become ionized, and the Ac-βA6-Amide standard was excluded due to weak signal intensity of the LC-MS (not shown), likely due to the lack of charged groups. […]

[3] = human, cells or culture medium
Description: as §1, §2, §3, §4

[4] = tested on: human mesenchymal stem cells (hMSCs)
Description: as §1, §2, §3, §4

Which metabolised at 48 h [1] does the source give for `CC(=O)N[C@@H](Cc1ccccc1)C(=O)NCCC(=O)NCCC(=O)NCCC(=O)NCCC(=O)NCCC(=O)NCCC(N)=O` [Ac-FβA6-Amide] here?
Its metabolised at 48 h is under 10%.

Which metabolised at 48 h [1] does the source give for `CC(=O)NCCC(=O)NCCC(=O)NCCC(=O)NCCC(=O)NCCC(=O)NCCC(N)=O` [Ac-βA6-Amide] here?
The metabolised at 48 h was under 10%.

Which “affinity to the LC-MS column (retention)” value ([2]; ProntoSIL C18 AQ, gradient begins after 1 min at 5% B, first 1.5 minutes sent to waste) does the source give for `NCCC(=O)NCCC(=O)NCCC(=O)NCCC(=O)NCCC(=O)NCCC(N)=O` [NH2-(βA)6-Amide] here?
The value was “eluting before the chromatography gradient begins”.

With `NC(=O)CCNC(=O)CCNC(=O)CCNC(=O)CCNC(=O)CCNC(=O)CCNC(=O)C[C@@H](N)Cc1ccccc1` [NH2-βFβA6-Amide] as the compound, how does the metabolised at 48 h [3] read?
Its metabolised at 48 h is under 10%.

And the remaining at 48 h [3]?
Its remaining at 48 h is over 92%.

And the “time stable in cell culture” value [4]?
The value was 48 h.

What about the peptide elution time ([2]; ProntoSIL C18 AQ 2.0 x 50 mm, 5% B held 1 min then 5-40% acetonitrile (1% acetic acid) over 5 min, 300 μL/min, 29 °C, retention tied to hydrophobicity and column affinity) of the same compound?
The peptide elution time was 2.68 min.
